Results from the supplement of paper PMC13380429.

How the values were obtained:
Conditions in all cases: 72 h
U2OS [1] = assay: cell viability relative to DMSO; higher = less toxic
Vero E6 [2] = assay: as above
HepG2 [3] = assay: as above
Caco-2 [4] = assay: as above
Calu-3 [5] = assay: as above
U2OS [6] = assay: drug sensitivity score (DSS) for viability; higher = more toxic; extreme values may be limits of the assay
Vero E6 [7] = assay: as above
HepG2 [8] = assay: as above
Caco-2 [9] = assay: as above
Calu-3 [10] = assay: as above
U2OS [11] = assay: relative viability EC50 (midpoint between 100% and the lowest measured viability); higher = less toxic
Vero E6 [12] = assay: as above
HepG2 [13] = assay: as above
Caco-2 [14] = assay: as above
Calu-3 [15] = assay: as above

Structure (SMILES)	cell viability (U2OS [1]; 1 nM) [%]	cell viability (U2OS [1]; 10 nM) [%]	cell viability (U2OS [1]; 100 nM) [%]	cell viability (U2OS [1]; 1000 nM) [%]	cell viability (U2OS [1]; 10000 nM) [%]	cell viability (Vero E6 [2]; 1 nM) [%]	cell viability (Vero E6 [2]; 10 nM) [%]	cell viability (Vero E6 [2]; 100 nM) [%]	cell viability (Vero E6 [2]; 1000 nM) [%]	cell viability (Vero E6 [2]; 10000 nM) [%]	cell viability (HepG2 [3]; 1 nM) [%]	cell viability (HepG2 [3]; 10 nM) [%]	cell viability (HepG2 [3]; 100 nM) [%]	cell viability (HepG2 [3]; 1000 nM) [%]	cell viability (HepG2 [3]; 10000 nM) [%]	cell viability (Caco-2 [4]; 1 nM) [%]	cell viability (Caco-2 [4]; 10 nM) [%]	cell viability (Caco-2 [4]; 100 nM) [%]	cell viability (Caco-2 [4]; 1000 nM) [%]	cell viability (Caco-2 [4]; 10000 nM) [%]	cell viability (Calu-3 [5]; 1 nM) [%]	cell viability (Calu-3 [5]; 10 nM) [%]	cell viability (Calu-3 [5]; 100 nM) [%]	cell viability (Calu-3 [5]; 1000 nM) [%]	cell viability (Calu-3 [5]; 10000 nM) [%]	drug sensitivity score (U2OS [6])	drug sensitivity score (Vero E6 [7])	drug sensitivity score (HepG2 [8])	drug sensitivity score (Caco-2 [9])	drug sensitivity score (Calu-3 [10])	relative viability EC50 (U2OS [11]) [µM]	relative viability EC50 (Vero E6 [12]) [µM]	relative viability EC50 (HepG2 [13]) [µM]	relative viability EC50 (Caco-2 [14]) [µM]	relative viability EC50 (Calu-3 [15]) [µM]
CCCN1CCO[C@@H]2c3cc(O)ccc3OC[C@H]21	102	106	97.1	102	99.7	99.7	101	102	101	95.7	106	104	100	92	105	101	116	97.8	109	102	102	110	95	105	90.6	0	0	0	0	0	> 10	> 10	> 10	> 10	> 10
CCNCc1cc(C(C)(C)C)c(O)c(C(C)(C)C)c1	102	103	98.5	101	96.5	101	104	96.7	97.2	105	99.1	99.7	99.6	98.4	105	103	97.8	96.1	98.2	99.8						0	0	0	0		> 10	> 10	> 10	> 10	
CC[C@H](C)n1cc(C)c2c(C(=O)NCc3c(C)cc(C)[nH]c3=O)cc(-c3ccc(N4CCNCC4)nc3)cc21	97.4	98.2	98.8	101	91.7	92.3	99.2	91.6	88.2	98.7	98.7	97.7	99.1	99	87.9	93.9	101	102	102	95.1	96.3	102	107	102	90.9	0	0	0.1	0	0	> 10	> 10	> 10	> 10	> 10
CN1C(=O)N(c2cc(Cl)cc(Cl)c2)C(=O)[C@]12CN(Cc1cc(C(=O)O)cs1)C[C@H]2c1ccc(C#N)cc1	104	97.8	101	103	100	98.3	101	95.5	96.6	105	101	112	109	98.1	104	109	94.8	100	103	93.7						0	0	0	0		> 10	> 10	> 10	> 10	
Cc1sc(N)c(C(=O)c2cccc(C(F)(F)F)c2)c1C	97.9	95.9	99.9	94.9	102	98.1	96.9	98	99.3	100	92.3	102	93.2	96.7	92.7	97.7	96.6	97	95.6	90.6	100	91.9	99.2	100	109	0	0	0	0	0	> 10	> 10	> 10	> 10	> 10
Fc1ccc(CN2CCC(Nc3ccc(C(F)(F)F)nn3)CC2)cc1F	101	95.5	95.6	102	101	90.3	101	97.4	98.5	104	90.1	108	91.2	88.1	93.4	100	95.8	101	94.7	94.1	112	97.6	86.9	91.7	107	0	0	0.8	0	0	> 10	> 10	> 10	> 10	> 10
Nc1nc(=O)c2sc(=O)n([C@@H]3O[C@H](CO)[C@@H](O)[C@H]3O)c2[nH]1	97.2	93.6	95.4	102	102	94.9	98.7	97	95.8	102	91.6	99.5	107	107	97.2	95.1	90.6	92.7	99.6	103	94.2	110	97	95.3	97.5	0	0	0	0	0	> 10	> 10	> 10	> 10	> 10
CC12CCC(C(Br)C1=O)C2(C)C (configuration not stated) [3-bromocamphor]	99.6	95.1	100	97.1	101	91.8	102	92.2	103	104	94.1	87.3	94.3	101	104	88.5	94.3	96.6	95.2	94.8						0	0	0	0		> 10	> 10	> 10	> 10	
O=c1[nH]cnc2ccccc12 [4-HQN]	95.2	98.7	94.5	101	102	99.9	93.8	94.8	92.1	100	104	86.9	113	99.1	108	86.3	94.6	91	101	107						0	0	0	0		> 10	> 10	> 10	> 10	
COc1ccn2ncc(-c3nc4[nH]nc(NC(=O)c5ccc(F)cc5)c4cc3F)c2c1 [CW-008]						93.6	98.5	99.4	97	89.1	109	102	95.2	101	93.1	99.1	92.5	91.2	89.6	87.7	109	107	113	97.8	97.2		0.1	0	0.6	0		> 10	> 10	> 10	> 10
Cc1ccc2c(c1)=C(c1ccccc1)C(C1=NN(C(=O)CCC(=O)O)C(c3ccc(Br)cc3)C1)C(=O)N=2 (configuration not stated) [DQP-1105]	102	110	97.4	100	94.9	95.9	100	100	97.7	96.9	106	105	97.9	95.2	105	94.1	97.7	97.2	90.2	96.1						0	0	0	0		> 10	> 10	> 10	> 10	
CCc1c(O)cc(O)c(C(=O)c2ccc(OCCN3CCOCC3)c(OC)c2)c1CC(=O)N(CCOC)CCOC [KW-2478]	98.8	95.3	100	98.3	47.5	98.6	103	96.1	99.1	100	108	103	109	69.1	5.8	110	96.3	101	77.6	46.5	104	110	100	76.9	53.4	3	0	9.6	5.9	5.4	2.93	> 10	1.33	1.14	
